# Species on record: Cavia porcellus
# Assay: Tested for inhibition of field-stimulation-induced contraction in the isolated guinea pig ileum
# Assay type: functional
# Details: read-out: ID50 (the source's name)
row,Compound,IC50
1,Cc1ccc2c(c1)-c1cccc3c1[C@@H](C2)N(C)CC3,6.8 µM
2,CCCN(CCC)C1CCc2cccc(O)c2C1 (racemic) [8-OH-DPAT],0.06 µM
3,Cc1ccc2c(c1)-c1cccc3c1[C@H](C2)N(C)CC3,1.2 µM

# Source: ChEMBL document CHEMBL1127044, “Preparation and pharmacological evaluation of enantiomers of certain nonoxygenated aporphines: (+)- and (-)-aporphine and (+)- and (-)-10-methylaporphine” (1993)
